One experiment deals with T1, HSV-1 protease (Human herpesvirus 1, UniProt P10210).
T1 construct: 6xHis (N); made in house; host or cells: baculovirus expression system
The experiment is described as follows: Enzymatic assay for HSV-1 protease (assembly) inhibitor, fluorescence polarization. The experiment is classed as biochemical. As to conditions: read-out: HSV-1 Enzyme inhibition IC50. The protocol: An enzymatic assay method for an HSV-1 protease (assembly) inhibitor
The activity of an assembly protease was determined by fluorescence polarization. Biotin-gamma-amino butyrate-[…]-DTAF was used as a fluorescent substrate in accordance with an HSV-1 release and cleavage site. […] Changes in the sizes of fluorescent substrate molecules that increased with the use of avidin as a reaction terminator were assayed by fluorescence polarization.
The test compound was dissolved in DMF, and the resultant was diluted 5-fold with an assay buffer. 6.5 μl thereof was added to wells of a 96-well plate (a U-bottomed 96-well plate, Coster) that had previously been blocked with a blocking solution (10 mM Tris-HCl (pH 8.0), 150 mM sodium chloride, 0.05% Tween 20, 1 mg/ml of BSA). The enzyme was diluted to 21.3 μg/ml with an assay buffer (1M sodium citrate, 50 mM sodium phosphate (pH 7.4), 100 mM sodium chloride, 20% glycerol, 2 mM TCEP), and 48.5 μl of the resultant was added to each well. The plate was incubated at room temperature for 30 minutes, and 10 μl of 62.5 μg/ml substrate solution was then added to each well. The plate was incubated at room temperature for 60 minutes, and 50 μl of 2 mg/ml avidin phosphate buffer solution (50 mM sodium phosphate, 100 mM sodium chloride (pH 7.4)) was added to each well. The activity was determined in comparison with a compound without protease inhibitor using a microplate reader for fluorescence polarization.
HSV-1 protease was purified from a vaculovirus that had expressed a DNA construct encoding the reading frame for HSV-1UL26. This construct had further encoded 6 histidine residues at the amino terminus of the protease. These additional histidine residues impart affinity ligands purified by nickel-nitriloacetic acid-agarose (Qiagen). The purified protease was stored as a stock solution for a 20 mM HEPES buffer (pH 8.5, containing 20% v/v glycerin). This stock solution was diluted with an assay buffer and then used in the enzyme reaction.
In accordance with the cleavage specificity of the HSV-1 protease at the “release site” of the assembled protein, a specific substrate was synthesized (Diianni et al., J. Biol. Chem. 268, 2048 (1993)). This assembly protein-release site had the sequence • HTYLQA*SEKFKMW • , and the substrate used was biotin-gamma-amino butyrate-HTYLQA*SERFRIK-DTAF. This is a standard method for peptide synthesis, for example, as in the a method described in “The Practice of Peptide Synthesis” (Bodansky and Bodansky (1984)). The product was stored as a 2.5 mg/ml stock solution in DMF. The resultant was diluted to 62.5 μg/ml with a phosphate buffer (50 mM sodium phosphate, 100 mM sodium chloride, (pH 7.4)) immediately before its use.
An assay buffer (1M sodium citrate, 50 mM sodium phosphate (pH 7.4), 100 mM sodium chloride, 20% glycerol, 2 mM TCEP) was used to dilute a stock solution for the enzyme and that for the inhibitor.
A general note: Fluorescence polarisation rises when a labelled molecule tumbles more slowly, as on binding a larger partner.

In the next experiment the test system is HSV-1. The experiment is described as follows: Antiviral activity, HSV-1 in Vero cells, plaque method. In kind it is cell-based. Conditions: 90% inhibition of plaque formation. The protocol: An Assay Method for Antiviral Activity These complementary assay methods examine the capacity of a compound to inhibit the generation of new viruses and to inhibit the toxicity of the compound against the host cell. Toxicity indirectly decreases the generation of viruses. Thus, it is important to simultaneously conduct both assays in order to directly compare the results. The Vero cells were sown on a 96-well plate and then cultured overnight. The culture supernatant was removed, and 100 μl of 2% FBS-DMEM containing 50,000 plaque-forming units (hereinafter abbreviated as “pfu”) of HSV-1 was added. A viral solution was removed and 200 μl of 2% FBS-DMEM comprising a test compound was added. In this case, a substance to which 2% FBS-DMEM not comprising any test compound had been added was determined as a control. These infected cells were incubated in the presence of 5% CO2 at 37° C. for 20 hours, and the medium was once allowed to freeze at −80° C. The culture solution was dissolved, and the amount of viruses in the culture solution was assayed by the plaque method. The concentration of the test compound when it inhibited 90% of plaque formation relative to the control was determined to be EC 90.

[1] abbreviates: Human alphaherpesvirus 1, 20 hours.

T1 sequence (P10210 1-247): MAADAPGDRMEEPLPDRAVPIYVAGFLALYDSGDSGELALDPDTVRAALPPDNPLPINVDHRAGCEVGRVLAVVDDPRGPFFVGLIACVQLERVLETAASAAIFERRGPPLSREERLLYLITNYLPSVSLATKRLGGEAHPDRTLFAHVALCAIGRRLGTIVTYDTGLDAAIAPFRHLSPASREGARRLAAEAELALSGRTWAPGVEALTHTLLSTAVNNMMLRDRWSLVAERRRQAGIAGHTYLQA

For the compound `Cc1c(NC(=O)OC(C)(C)C)ccc2nc(N(C)CC(=O)N(C)CCc3ccccn3)oc(=O)c12` [Compound No.131, [5-Methyl-2-(methyl-{[methyl-(2-pyridin-2-yl-ethyl)-carbamoyl]-methyl}-amino)-4-oxo-4H-benzo[d][1,3]oxazin-6-yl]-carbamic acid tert-butyl ester], the concentration for half-maximal inhibition (IC50) on HSV-1 protease amounted to 0.4 µM. The same compound displayed an EC90 with HSV-1 (setting [1]) above 20 µM.
For `Cc1c(NC(=O)OC(C)(C)C)ccc2nc(NC3(C(=O)N(C)Cc4cccnc4)CCCC3)oc(=O)c12` [Compound No.119, {5-Methyl-2-[1-(methyl-pyridin-3-ylmethyl-carbamoyl)-cyclopentylamino]-4-oxo-4H-benzo[d][1,3]oxazin-6-yl}-carbamic acid tert-butyl ester] the same measures were 0.7 µM and above 12.5 µM.
For `Cc1c(NC(=O)CCCNC(=O)OCc2ccccc2)ccc2nc(NC(C)(C)C(=O)N(C)CCc3ccccn3)oc(=O)c12` [Compound No.204, [3-(5-Methyl-2-{1-methyl-1-[methyl-(2-pyridin-2-yl-ethyl)-carbamoyl]-ethylamino}-4-oxo-4H-benzo[d][1,3]oxazin-6-ylcarbamoyl)-propyl]-carbamic acid benzyl ester] the same measures were 0.3 µM and above 12.5 µM.
For the compound `CCC(CC)C(=O)Nc1ccc2nc(NC(C)(C)C(=O)N(C)CCc3ccccn3)oc(=O)c2c1C` [Compound No.197, 2-Ethyl-N-(5-methyl-2-{1-methyl-1-[methyl-(2-pyridin-2-yl-ethyl)-carbamoyl]-ethylamino}-4-oxo-4H-benzo[d][1,3]oxazin-6-yl)-butylamide], the IC50 at HSV-1 protease is 7.2 µM. The compound also registered an EC90 with HSV-1 (20 hours) of at least 12.5 µM.
Take `Cc1c(NC(=O)c2cccs2)ccc2nc(NC(C)(C)C(=O)N(C)CCc3ccccn3)oc(=O)c12` [Compound No.134, Thiophene-2-carboxylic Acid (5-methyl-2-{1-methyl-1-[methyl-(2-pyridin-2-yl-ethyl)-carbamoyl]-ethylamino}-4-oxo-4H-benzo[d][1,3]oxazin-6-yl)-amide]: the IC50 on HSV-1 protease is 0.9 µM. Further, the EC90 with HSV-1 (setting [1]) was above 12.5 µM.
As for `Cc1c(NC(=O)OC(C)(C)C)ccc2nc(NC3(C(=O)N(C)CCc4ccncc4)CC3)oc(=O)c12` [Compound No.127, (5-Methyl-2-{1-[methyl-(2-pyridin-4-yl-ethyl)-carbamoyl]-cyclopropylamino}-4-oxo-4H-benzo[d][1,3]oxazin-6-yl)-carbamic acid tert-butyl ester], the IC50 at HSV-1 protease is 1.8 µM. The EC90 with HSV-1 (setting [1]) is above 12.5 µM.
For `Cc1c(NC(=O)CCCNC(=O)c2ccncc2)ccc2nc(NC(C)(C)C(=O)N(C)CCc3ccccn3)oc(=O)c12` the same measures were 0.5 µM and above 12.5 µM.
With `Cc1c(NC(=O)OC(C)(C)C)ccc2nc(NC3(C(=O)N(C)CCc4ccncc4)CCCC3)oc(=O)c12` [Compound No.128, (5-Methyl-2-{1-[methyl-(2-pyridin-4-yl-ethyl)-carbamoyl]-cyclopentylamino}-4-oxo-4H-benzo[d][1,3]oxazin-6-yl)-carbamic acid tert-butyl ester], the IC50 at HSV-1 protease was 0.4 µM. This compound also gave an EC90 in the experiment on HSV-1 (setting [1]) of 10.1 µM.
For `Cc1c(NC(=O)c2cccs2)ccc2nc(N[C@@H](C)C(=O)N(C)CCc3ccccn3)oc(=O)c12` [Compound No.135, Thiophene-2-carboxylic acid (5-methyl-2-{1S-[methyl-(2-pyridin-2-yl-ethyl)-carbamoyl]-ethylamino}-4-oxo-4H-benzo[d][1,3]oxazin-6-yl)-amide] the same measures were 1.3 µM and above 12.5 µM.
For `CCCCc1ccc(C(=O)NCCCC(=O)Nc2ccc3nc(N[C@@H](C)C(=O)N(C)CCc4ccccn4)oc(=O)c3c2C)cc1` [Compound No.220, 4-Butyl-N-[3-(5-methyl-2-{1S-[methyl-(2-pyridin-2-yl-ethyl)-carbamoyl]-ethylamino}-4-oxo-4H-benzo [d][1,3]oxazin-6-ylcarbamoyl)-propyl]-benzamide] the same measures were 0.5 µM and above 12.5 µM.
As for `Cc1c(NC(=O)OC(C)(C)C)ccc2nc(NC3(C(=O)N(C)CCc4ccccn4)CC3)oc(=O)c12` [Compound No.122, (5-Methyl-2-{1-[methyl-(2-pyridin-2-yl-ethyl)-carbamoyl]-cyclopropylamino}-4-oxo-4H-benzo[d][1,3]oxazin-6-yl)-carbamic acid tert-butyl ester], the IC50 at HSV-1 protease was 1.6 µM. Besides, the EC90 in the experiment on HSV-1 (setting [1]) is above 12.5 µM.
For `Cc1c(NC(=O)CCCNC(=O)c2ccc(C(F)(F)F)cc2)ccc2nc(N[C@@H](C)C(=O)N(C)CCc3ccccn3)oc(=O)c12` [Compound No.219, N-[3-(5-Methyl-2-{1S-[methyl-(2-pyridin-2-yl-ethyl)-carbamoyl]-ethylamino}-4-oxo-4H-benzo[d][1,3]oxazin-6-ylcarbamoyl)-propyl]-4-trifluoromethyl-benzamide] the same measures were 0.9 µM and above 12.5 µM.
Take `Cc1c(NC(=O)CCNC(=O)c2ccc(C(F)(F)F)cc2)ccc2nc(N[C@@H](C)C(=O)N(C)CCc3ccccn3)oc(=O)c12` [Compound No.216, N-[2-(5-Methyl-2-{1S-[methyl-(2-pyridin-2-yl-ethyl)-carbamoyl]-ethylamino}-4-oxo-4H-benzo[d][1,3]oxazin-6-ylcarbamoyl)-ethyl]-4-trifluoromethyl-benzamide]: at HSV-1 protease, the IC50 was 3 µM. This compound registered an EC90 in the experiment with HSV-1 (setting [1]) above 12.5 µM.
For `Cc1c(NC(=O)CCCNC(=O)OCc2ccccc2)ccc2nc(N[C@@H](C)C(=O)N(C)CCc3ccccn3)oc(=O)c12` [Compound No.208, [3-(5-Methyl-2-{1S-[methyl-(2-pyridin-2-yl-ethyl)-carbamoyl]-ethylamino}-4-oxo-4H-benzo[d][1,3]oxazin-6-ylcarbamoyl)-propyl]-carbamic acid benzyl ester] the same measures were 0.2 µM and above 12.5 µM.
On to `Cc1c(NC(=O)OC(C)(C)C)ccc2nc(NC3(C(=O)N(C)CCc4ccccn4)CCCC3)oc(=O)c12` [Compound No.123, (5-Methyl-2-{1-[methyl-(2-pyridin-2-yl-ethyl)-carbamoyl]-cyclopentylamino}-4-oxo-4H-benzo[d][1,3]oxazin-6-yl)-carbamic acid tert-butyl ester], for which, at HSV-1 protease, the IC50 is 0.6 µM. In the experiment on HSV-1 (setting [1]), this compound yielded an EC90 of 9.6 µM.
For `Cc1c(NC(=O)OC(C)(C)C)ccc2nc(NC3(C(=O)N(C)CCc4cccnc4)CC3)oc(=O)c12` [Compound No.125, (5-Methyl-2-{1-[methyl-(2-pyridin-3-yl-ethyl)-carbamoyl]-cyclopropylamino}-4-oxo-4H-benzo[d][1,3]oxazin-6-yl)-carbamic acid tert-butyl ester] the same measures were 2.1 µM and above 12.5 µM.
Take `Cc1c(NC(=O)CCNC(=O)OC(C)(C)C)ccc2nc(N[C@@H](C)C(=O)N(C)CCc3ccccn3)oc(=O)c12` [Compound No.205, [2-(5-Methyl-2-{1S-[methyl-(2-pyridin-2-yl-ethyl)-carbamoyl]-ethylamino}-4-oxo-4H-benzo[d][1,3]oxazin-6-ylcarbamoyl)-ethyl]-carbamic acid tert-butyl ester]: the IC50 on HSV-1 protease turned out to be 2.5 µM. The compound further showed an EC90 with HSV-1 (setting [1]) above 20 µM.

A word on the IC50: it is the concentration that gives 50% inhibition. Usually EC90 stands for the concentration at which the effect reaches the 90% level.

(Values after patent US20040116420A1 (priority 2001, published 2004).)
